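At the GI50, growth is halved. TGI: total growth inhibition.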
Legend:
Assay in all cases: NCI anticancer screen, dose series, 384-well format
SNB-19 CNS = tested on: SNB-19 CNS
HCC-2998 colon = tested on: HCC-2998 colon
MDA-MB-435 melanoma = tested on: MDA-MB-435 melanoma
COLO 205 colon = tested on: COLO 205 colon
SF-268 CNS = tested on: SF-268 CNS
OVCAR-3 ovarian = tested on: OVCAR-3 ovarian
OVCAR-4 ovarian = tested on: OVCAR-4 ovarian
SK-OV-3 ovarian = tested on: SK-OV-3 ovarian
RXF 393 renal = tested on: RXF 393 renal
SK-MEL-28 melanoma = tested on: SK-MEL-28 melanoma
A549 NSCLC = tested on: A549 NSCLC
SW-620 colon = tested on: SW-620 colon
ACHN renal = tested on: ACHN renal

## CC1(N)CCN(c2cccnc2NC(=O)c2nc(-c3ncccc3C(F)(F)F)cnc2N)CC1
SNB-19 CNS
  GI50: 27.8 µM
  TGI: > 76.7 µM
HCC-2998 colon
  GI50: 17.9 µM
  TGI: 33.4 µM
MDA-MB-435 melanoma
  GI50: > 56.1 µM
  TGI: > 100 µM
COLO 205 colon
  GI50: 17.9 µM
  TGI: > 54.6 µM
SF-268 CNS
  GI50: 19.9 µM
  TGI: 47 µM
OVCAR-3 ovarian
  GI50: 15.1 µM
  TGI: 44.5 µM
OVCAR-4 ovarian
  GI50: > 69.4 µM
  TGI: > 100 µM
SK-OV-3 ovarian
  GI50: 17.8 µM
  TGI: 38.6 µM
RXF 393 renal
  GI50: 12.5 µM
  TGI: 25.5 µM
SK-MEL-28 melanoma
  GI50: 24.2 µM
  TGI: > 62.3 µM
A549 NSCLC
  GI50: 25 µM
  TGI: > 65 µM
SW-620 colon
  GI50: 19.3 µM
  TGI: 60.6 µM
ACHN renal
  GI50: 22.7 µM
  TGI: > 94.7 µM

From PubChem BioAssay (NCI)
